The values below come from patent US8097588B2, “Trophinin-binding peptides and uses thereof” (Sanford-Burnham Medical Research Institute, priority 2007, dated 2012).

For assay [1], the system named is HT-H cells. The assay can be described thus: Western blot for tyrosine phosphorylated proteins, HT-H cells. The class given is cell-based, human. Conditions: serum-depleted medium, 30 min. On the procedure:
(§1) Tyrosine phosphorylated proteins were detected by anti-phosphotyrosine antibody (4G10, mouse IgG). HT-H cells and A431 cells were grown in 10 cm plates to semi confluency, incubated in phosphorylation medium with GWRQ peptide (GWRQ-MAP; 2 μg/ml) at 4° C. for 15 min, and stimulated for phosphorylation at 37° C. for 0 min 120 min. Control HT-H cells were treated in the same manner without GWRQ peptide. HT-H cells were harvested using rubber policemen, collected by centrifugation, and washed once with cold PBS. Cells were lysed with 0.5% NP-40 in PBS containing phosphatase inhibitors (30 mM NaF, 40 mM β-glycerophosphate, 20 mM Na pyrophosphate, and 1 mM Na2VO4) and protease inhibitors (2 mM EGTA, 5 mM EDTA, 1 mM phenylmethylsulfonylfluoride, 3 mM benzamidine, 5 μM pepstatin A, 10 μM leupeptin). Western blot was carried out as described above.
(§2) Screening of phosphorylated proteins by phospho specific antibodies was carried out by Kinexus, Vancouver, B. C., Canada. HT-H cells and A431 cells grown as monolayers were serum starved by culturing in medium lacking FCS for 2 days. Cells were incubated in phosphorylation medium without FCS and then stimulated at 37° C. for 0 min˜120 min in medium containing recombinant human EGF (20 ng/ml) with or without GWRQ peptide.
Background: In western blotting, separated proteins are transferred to a membrane and probed.

Assay [2] has as its system A431 cells. In words: Western blot for tyrosine phosphorylated proteins, A431 cells. Conditions: serum-depleted medium, 30 min. The class given is cell-based. The method, then: as §1, §2
Assay [3] relates to ErbB4. In words: Tyrosine kinase activity assay of anti-ErbB4 immunoprecipitates, HT-H cells. The class given is cell-based, human. Conditions: GWRQ peptide 5 μg/ml, EGF 20 ng/ml. The method, then: (§3) A431 cells and HT-H cells were cultured in 10 cm plate to sub-confluency.
(§4) Medium was replaced with DME without FCS, and cells were cultured for 3 days without FCS by exchanging medium every day. To HT-H or A431 monolayer kept at 4° C., Na3VO4 was added to 1 mM. GWRQ peptide (5 μg/ml) and/or recombinant human EGF (20 ng/ml) was added to each plate, and left at 4° C. for 30 min. Cells were harvested by rubber policeman, and washed with cold PBS. Cells were lysed in PBS containing 1% NP-40, and cell lysate was subjected to immunoprecipitation with 20 & I protein A beads pre-coated with control IgG or with rabbit anti-ErbB4 antibody (Sant Cruz Biotechnology). Immunoprecipitates were washed with cold PBS and suspended in cold PBS. A polyvinylchloride ELISA plate (Falcon) was coated with tyrosine kinase substrate poly EY (Sigma) in PBS (1 μg/100 μl) at 4° C. for 20 hours. After washing the plate, each immunoprecipitate as triplicate was added to each well in 100 & I kinase assay buffer (50 mM Hepes buffer, pH 7.4, 20 mM MgCl2, 1 mM MnCl2 2 mM Na3VO4, and 0.4 mM ATP), and reacted at room temperature for 30 min. […] After washing wells with TBS, peroxidase substrate ABTS (Pierce) was added and developed color was read in an ELISA reader at 405 mm.

In assay [4] the test system is ErbB4. The assay can be described thus: Tyrosine kinase activity assay of anti-ErbB4 immunoprecipitates, A431 cells. The class given is cell-based. As to conditions: GWRQ peptide 5 μg/ml, EGF 20 ng/ml. The method, then: as §3, §4
The subject of assay [5] is HT-H cells. In words: Activation of HT-H cells, monomeric versus branched peptide. The class given is cell-based, human.

On to “EGF: recombinant human EGF (NSDSECPLSHDGYCLHDGVCMYIEALDKYACNCVVGYIGERCQYRDLKWWELR)”, for which, in assay [1], the “EGFR / tyrosine phosphorylation in HT-H cells” value is on record as “no detectable EGFR phosphorylation”. The “EGFR / tyrosine phosphorylation in A431 cells” value in assay [2] was “caused EGFR phosphorylation”. For the same substance, in assay [3], the “ErbB4 kinase activity in HT-H cells” value is “activated”. Moreover, in assay [4], the “ErbB4 kinase activity in A431 cells” value is recorded as “activated”.

With “monomeric GWRQ peptide: a single linear GWRQ peptide”, the “concentration needed to activate HT-H cells” value in assay [5] was in the range of 200 to 500 µg/mL. The “efficiency relative to octameric branched GWRQ peptide (GWRQ-MAP)” value in assay [5] (less efficiency) is “about 100 times”.
